16 compounds from ChEMBL document CHEMBL3259799, “New melatonin-N,N-dibenzyl(N-methyl)amine hybrids: potent neurogenic agents with antioxidant, cholinergic, and neuroprotective properties as innovative drugs for Alzheimer's disease” (J Med Chem, 2014) can be followed below.

Data set [1] is described as follows: Permeability of the compound by PAMPA. Format: physicochemical. Conditions: read-out: permeability. For orientation: PAMPA measures passive passage across an artificial lipid membrane.
The subject of data set [2] is SH-SY5Y. As to the kind of experiment: Neuroprotective activity in human SH-SY5Y cells assessed as protection from rotenone/oligomycin A-induced mitochondrial ROS at 1 uM incubated for 24 hrs prior to rotenone/oligomycin A challenge measured after 24 hrs by LDH assay. The class given is functional.
Data set [3] in a line: Antioxidant activity assessed as oxygen radical absorbance capacity after 15 mins fluorescence assay relative to trolox. Format: functional.
The target of data set [4] is Acetylcholinesterase (Homo sapiens, UniProt P22303).
Description: Inhibition of human recombinant AchE using acetylthiocholine iodide as substrate incubated for 5 mins prior to substrate addition measured after 5 mins by Ellman method
The species entered for data set [5] is Homo sapiens. Description: Inhibition of human BuChE using butyrylthiocholine as substrate at 10 uM incubated for 5 mins prior to substrate addition measured after 5 mins by Ellman method.
Data set [6] can be described thus: Cytotoxicity against human SH-SY5Y cells assessed as cell viability at 1 uM after 24 hrs by LDH assay relative to control. Conditions: read-out: Activity. Format: cell-based.
Data set [7] relates to SH-SY5Y. Description: Cytotoxicity against human SH-SY5Y cells at 10 uM after 48 hrs by LDH assay relative to control. Format: cell-based.
The species entered for data set [8] is Rattus norvegicus. Description: Neurogenic activity in Wistar rat Primary neural stem cells assessed as cell maturation by measuring MAP-2 at 10 uM after 48 hrs by DAPI staining-based immunohistochemistry. Format: functional.
Data set [9] is filed under the species Rattus norvegicus. Description: Neurogenic activity in Wistar rat Primary neural stem cells assessed as cell maturation by measuring TuJ1 at 10 uM after 48 hrs by DAPI staining-based immunohistochemistry. The class given is functional.
The test system of data set [10] is SH-SY5Y. Description: Cytotoxicity against human SH-SY5Y cells at 10 uM after 48 hrs by MTT assay relative to control. Format: cell-based. (In general: Tetrazolium dyes change colour on reduction, which living cells bring about.)

Molecules are shown by their SMILES. Activity calls are given as the source filed them. The calls are words filed in the database; no cut-off is given here.

In general, IC50 refers to the concentration at which inhibition is half-maximal. A word on the inhibition: it is the percentage by which the read-out fell short of the control.

Chain of Acetylcholinesterase (P22303 whole entry): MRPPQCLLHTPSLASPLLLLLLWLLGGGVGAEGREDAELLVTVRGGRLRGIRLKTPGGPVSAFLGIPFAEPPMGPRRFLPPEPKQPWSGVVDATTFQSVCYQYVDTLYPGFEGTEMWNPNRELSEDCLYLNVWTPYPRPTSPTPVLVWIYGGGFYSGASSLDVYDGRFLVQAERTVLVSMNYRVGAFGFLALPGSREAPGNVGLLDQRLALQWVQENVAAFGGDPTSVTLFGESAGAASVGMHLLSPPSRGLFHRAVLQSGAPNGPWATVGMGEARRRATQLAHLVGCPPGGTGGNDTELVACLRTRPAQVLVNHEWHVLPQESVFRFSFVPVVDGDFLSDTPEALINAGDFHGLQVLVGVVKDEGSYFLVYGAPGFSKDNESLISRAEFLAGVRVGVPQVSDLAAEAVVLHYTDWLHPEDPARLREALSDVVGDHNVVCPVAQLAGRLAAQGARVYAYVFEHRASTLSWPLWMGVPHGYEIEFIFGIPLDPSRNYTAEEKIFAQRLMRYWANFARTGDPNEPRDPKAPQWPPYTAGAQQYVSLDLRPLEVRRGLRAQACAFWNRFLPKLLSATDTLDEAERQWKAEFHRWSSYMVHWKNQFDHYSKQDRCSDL

Consider `COc1ccc2[nH]cc(CCNC(=O)c3ccc(CN(C)Cc4ccccc4OC)cc3)c2c1`, for which the Papp in [1] is 9.9 ×10⁻⁶ cm/s. The values for the Activity in data set [2] and in [3] were 12% and 2.4, respectively. In data set [4], this compound returned an IC50 of 5.4 µM. Further, in data set [5], the inhibition came out at 47%. For the same compound, the viability at 24 h, 1 µM in [6] is 100%.
For the compound `CN(Cc1ccc(C(=O)NCCc2c[nH]c3ccccc23)cc1)Cc1ccccc1Cl`, the Papp in data set [1] was 5.8 ×10⁻⁶ cm/s. For the same compound, the Activity was found to be 12% in data set [2] and 2.8 in data set [3]. The same compound yielded an IC50 in data set [4] of 3.8 µM. In data set [5], the inhibition amounted to 38%. In [6], the viability at 24 h, 1 µM is 100%.
Take `COc1ccc2[nH]cc(CCNC(=O)c3ccc(CN(C)Cc4ccccc4)cc3)c2c1`: in data set [1], the Papp worked out at 7.1 ×10⁻⁶ cm/s. The Activity in [2] was 36%; in data set [7], “Non-toxic”; in data set [3], 2.5; in [10], “Non-toxic”. The result in [8] and in data set [9] was Active. The compound further showed a 50% inhibitory concentration (IC50) in [4] of 6.1 µM. The viability at 24 h, 1 µM in [6] was 100%.
`COc1ccc2c(CCNC(=O)c3ccc(CN(C)Cc4ccccc4)cc3)c[nH]c2c1`: in data set [1], the Papp amounted to 7.2 ×10⁻⁶ cm/s. Also, the Activity in data set [2] is 12%; in [3], 1.5. Further, in data set [4], the IC50 was determined as 4.1 µM. For the same compound, the viability at 24 h, 1 µM in [6] came to 100%.
With `CN(Cc1ccc(C(=O)NCCc2c[nH]c3ccccc23)cc1)Cc1cccc(Cl)c1`, in data set [1], the Papp turned out to be 7.1 ×10⁻⁶ cm/s. Also, the values for the Activity in [2] and in [3] were 12% and 2.9, respectively. This compound showed a half-inhibitory concentration (IC50) in [4] of 5.1 µM. In data set [5], this compound displayed an inhibition of 38%. Also, the viability at 24 h, 1 µM in data set [6] is 100%.
Regarding `CN(Cc1ccccc1)Cc1ccc(C(=O)NCCc2c[nH]c3ccccc23)cc1`, the Papp in data set [1] amounted to 7.4 ×10⁻⁶ cm/s. Besides, the figures for the Activity in data set [2] and in data set [3] were 12% and 3.2, respectively. For the same compound, half-maximal inhibition in data set [4] (IC50) required 1.9 µM. Also, the viability at 24 h, 1 µM in [6] came out at 100%.
For the compound `COc1ccc2[nH]cc(CCNC(=O)c3ccc(CN(C)Cc4ccccc4Cl)cc3)c2c1`, the Papp in [1] was 5.9 ×10⁻⁶ cm/s. The values for the Activity in data set [2] and in data set [3] were 27% and 2.5, respectively. The compound also gave an IC50 in data set [4] of 2.6 µM. This compound also gave an inhibition in [5] of 37%. The viability at 24 h, 1 µM in data set [6] was 100%.
`CN(Cc1ccccc1)Cc1ccc(C(=O)NCCc2c[nH]c3ccc(O)cc23)cc1`: in [1], the Papp worked out at 5 ×10⁻⁶ cm/s. Further, the Activity in data set [2] was determined as 12%; in [3], 4.3. This compound returned an IC50 in [4] of 4.2 µM. Further, in [6], the viability at 24 h, 1 µM came out at 100%.
As for `COc1ccc2c(CCNC(=O)c3ccc(CN(C)Cc4cccc(Cl)c4)cc3)c[nH]c2c1`, the Papp in data set [1] is 7.9 ×10⁻⁶ cm/s. In addition, the Activity in data set [2] came out at 12%; in data set [3] it was 1.8. The compound further yielded an IC50 in [4] of 2.1 µM. The compound also showed an inhibition in [5] of 22%. Also, in data set [6], the viability at 24 h, 1 µM is 100%.
Turning to `COc1ccc2[nH]cc(CCNC(C)=O)c2c1`, the outcome in [8] and in [9] was Active. In addition, the Activity in data set [3] amounted to 2.4.
Take `CN(Cc1ccccc1)Cc1ccc(C(=O)NCCc2c[nH]c3cc(F)ccc23)cc1`: the Papp in data set [1] turned out to be 6.6 ×10⁻⁶ cm/s. Also, the Activity in data set [2] is 12%; in data set [3], 2.1. This compound yielded an IC50 in [4] of 2.5 µM. Further, the viability at 24 h, 1 µM in data set [6] came out at 100%.
Take `CC(=O)NCCc1c(Cc2ccccc2)[nH]c2ccccc12`: the outcome in data set [8] and in data set [9] was inactive.
Consider `COc1ccccc1CN(C)Cc1ccc(C(=O)NCCc2c[nH]c3ccccc23)cc1`, for which, in data set [1], the Papp is 8.8 ×10⁻⁶ cm/s. Besides, the Activity in data set [2] is 12%; in data set [7], “Non-toxic”; in [3], 2.9; in data set [10] it was “Non-toxic”. Moreover, the outcome in [8] and in [9] was Active. The IC50 in [4] was found to be 4.7 µM. Further, the viability at 24 h, 1 µM in data set [6] worked out at 100%.
Consider `COc1cccc(CN(C)Cc2ccc(C(=O)NCCc3c[nH]c4ccccc34)cc2)c1`, for which the Papp in data set [1] amounted to 8.8 ×10⁻⁶ cm/s. Also, the Activity in data set [2] was 12%; in data set [3], 2.7. It took 3.8 µM to reach half-maximal inhibition in [4] (IC50). Further, the viability at 24 h, 1 µM in data set [6] is 100%.
For `COc1ccc2[nH]cc(CCNC(=O)c3ccc(CN(C)Cc4cccc(Cl)c4)cc3)c2c1`, the Papp in data set [1] was determined as 7.9 ×10⁻⁶ cm/s. Moreover, the Activity in data set [2] was 12%; in data set [3] it was 2.6. The same compound had an IC50 in [4] of 5.6 µM. Besides, in data set [5], the inhibition worked out at 38%. Besides, in data set [6], the viability at 24 h, 1 µM turned out to be 100%.
For `COc1cccc(CN(C)Cc2ccc(C(=O)NCCc3c[nH]c4ccc(OC)cc34)cc2)c1`, in data set [1], the Papp worked out at 8.7 ×10⁻⁶ cm/s. In addition, the Activity in data set [2] is 40%; in data set [7] it was “Non-toxic”; in data set [3] it was 2.5; in data set [10], “Non-toxic”. Moreover, the result in [8] and in data set [9] was Active. In data set [4], this compound returned an IC50 of 6.8 µM. This compound also came in with an inhibition in data set [5] of 45%. Besides, the viability at 24 h, 1 µM in [6] was 100%.
